Measurements published in patent publication US4440757A, “Pharmaceutical composition comprising derivative of aminobenzoic acid for regulating prostaglandin” (priority 1978, dated 1984).

Tests used:
[1] = system: male SHR rats; assay: Blood pressure and 6-keto PGF1-α in blood of SHR after 14 days; format: in vivo, rat (SHR); details: 100 mg/kg/day p.o.; for Content of 6-keto-PGF1-α in blood: control 3; for Blood pressure: control 195
Protocol: After forcibly administering the present substance (Specimens Nos. 4, 7 and 8) every day for successive 14 days at a rate of 100 mg/kg/day by oral route to groups of male SHR rats, their whole blood was collected on 15th day to obtain the plasma fraction. The ether-extract of the plasma fraction was separated and isolated by thin-layer chromatography and after converting the isolated fraction into methyloximesilyl derivatives, the alteration of 6-keto PGF1-α was examined by gas-chromatography and mass-spectroscopy. In the group to which the present substance was administered, the content of 6-keto PGF1-α was larger together with the reduced blood pressure than in control. This parallelism of the effects leads to the presumption that the effect of the present invention is mediated by prostaglandin.

[2] = system: platelets (3 times concentrated PRP), cyclic AMP; assay: Level of cyclic AMP in platelets; format: cell-based; details: room temperature, 5 min
Protocol: PRP (platelet rich plasma) was prepared by the predetermined method and it was centrifugated for 20 min at 700XG to obtain a supernatant liquid named PPP (platelet poor plasma). The precipitate was re-floated in 1/3 times by volume of PPP to prepare 3 times concentrated PRP.
In the thus prepared concentrated PRP, each aqueous solution of the present substances of a pre-determined concentration (in this case, Specimens Nos. 4, 7 and 8) and an aqueous physiological saline solution, and the mixture was incubated at room temperature for 5 min. Then, the procedures of boiling, homogenating and centrifugating were carried out in this order, and 50 μl of the supernatant liquid was used for measuring cyclic AMP. The measurement was carried out following the method of Gilman. As a positive control, PGE1 was used.

[3] = Acute oral toxicity (Litchfield-Wilcoxon); details: in vivo, mouse, 7 days
Protocol: The acute oral toxicity of the present substances were examined by using groups of ICR-JCL mouse and orally administering each of the representatives of present substances forcibly as an aqueous solution in distilled water or as an aqueous suspension also in distilled water at predetermined dosages, respectively. After observing the toxicological symptoms, if any, for 6 days, and recording the mortality until 7th day of the administration, LD50 (acute oral) was calculated by the method of Litchfield-Wilcoxon, and autopsy was carried out on dead mice and live mice to obtain informations.

[4] = system: HeLa S3 cultured cells of human uterine cancer; assay: PGE in culture medium of human uterine cancer cells; format: cell-based; details: for Concentration of PGE after culture: 2 days, control 312; for Change of Concentration of PGE during culture: control +120
Protocol: To each 10 ml of a culture medium prepared by adding 10% bovine foetal serum and one of the present substance, Specimen No. 7, at a concentration of 0 (control), 10, 100, 500, 1,000 or 5,000 μg/ml to Eagle's culture medium and placed in a polystyrene flask of 75 cm^2 in bottom surface, HeLa S3 cultured cells of human uterine cancer were inoculated at a rate of 5×10^5 cells/flask and cultured at 37° C. for 2 days under a mixed atmosphere of 5% by volume of gaseous carbon dioxide and 95% by volume of air. After the incubation was over, the whole cultured medium was centrifugated at a temperature of 4° C. at 1,500 rpm to obtain a supernatant liquid of the cultured medium. The content of PGE in the supernatant liquid was determined by ^3 H-Prostaglandin E Radioimmunoassay Kit.

[5] = system: washed platelets, malondialdehyde; assay: Level of malondialdehyde (MDA) of platelets; format: cell-based, human; details: Ca ionophore A-23187, 5 min, 37° C.
Protocol: PRP collected from human blood was centrifugated and washed to be "washed platelets". After adding one of the present substances (Specimens Nos. 4, 7 and 8) to the washed platelets, Caionophore A-23187 was further added to them and the mixture was incubated for 5 minutes at 37° C. Then, thiobarbituric acid was added to the incubated mixture, as a colour developer, and the mixture was extracted with a solvent mixture of methanol and butanol. The absorption at 535 nm was colorimetrically read to determine the amount of malondialdehyde (MDA). […] From this fact also, the participation of the present substance in the metabolism of PGs is presumable.

[6] = system: Ehrlich cancer cells; assay: Cyclic AMP and cyclic GMP in cancer cells of cancer-bearing mouse; format: in vivo, female ICR/JCL mice; details: 200 mg/kg/day i.p., 5 days
Protocol: Ehrlich cancer cells were transplanted into the abdominal cavity of female ICR/JCL mice after 5 weeks of birth at a rate of 1×10^6, cells/animal, and while feeding the mice, the present substance, Specimen No. 7, was intraperitoneally administered to the mice every day from the next day of transplantation for 5 days at a rate of 200 mg/kg/day. On the 6th day, the mice were sacrificed with ether to collect each 5 ml of ascites. After adding tetrasodium ethylenediamminetetraacetate into the thus collected ascites, the mixture was centrifugated for 10 min at a temperature of 4° C. and 1,500 rpm to separate the supernatant liquid and the cancer cells. The supernatant liquid was again centrifugated at 4° C. and 3,000 rpm for 15 min. The separated cancer cells were washed with Hank's solution and then subjected to repeated centrifugation for 5 times at 800 rpm for each 5 min to remove impurities such as erythrocytes, etc. After homogenizing 1×10^8 cells of the cancer in 3 ml of an aqueous 6% solution of trichloroacetic acid at a temperature of 0° C., the homogenate was centrifugated for 20 min at 3000XG to obtain a liquid extract. After adding 10% by weight of an aqueous 1 N solution of hydrochloric acid to the liquid extract, it was extracted 5 times with each two times by volume of ether to remove trichloroacetic acid. […]

Row | SMILES | Content of 6-keto-PGF1-α in blood [1] [ng/mL] | Blood pressure [1] [mmHg] | level of intra-platelet cyclic AMP (FIG. 7) [2] | LD50 at 168 h [3] [mg/kg] | Concentration of PGE after culture ([4]; 10 μg/ml) [pg/mL] | Change of Concentration of PGE during culture ([4]; 10 μg/ml) [pg/mL] | Concentration of PGE after culture ([4]; 100 μg/ml) [pg/mL] | Change of Concentration of PGE during culture ([4]; 100 μg/ml) [pg/mL] | Concentration of PGE after culture ([4]; 500 μg/ml) [pg/mL] | Change of Concentration of PGE during culture ([4]; 500 μg/ml) [pg/mL] | Concentration of PGE after culture ([4]; 1000 μg/ml) [pg/mL] | Change of Concentration of PGE during culture ([4]; 1000 μg/ml) [pg/mL] | Concentration of PGE after culture ([4]; 5000 μg/ml) [pg/mL] | Change of Concentration of PGE during culture ([4]; 5000 μg/ml) [pg/mL] | production of malondialdehyde (MDA) (FIG. 8) [5] | GMP per 10^8 cancer cells ([6]; control 0.59) [pM] | Cyclic AMP per 10^8 cancer cells ([6]; control 19.5) [pM]
1 | O=C(O)c1ccc(NC2OC[C@@H](O)[C@H](O)[C@H]2O)cc1 (stereo partly drawn) [Specimen No. 7, Sodium p-aminobenzoate-N--D-xyloside] | 6.5 | 160 | raising the level of intra-platelet cellular cyclic AMP | 11800 | 40 | -152 | 80 | -112 | 48 | -144 | 25 | -167 | 25 | -167 | suppressed the production of MDA | 0.72 | 21.2
2 | C[C@@H]1OC(Nc2ccc(C(=O)O)cc2)[C@H](O)[C@H](O)[C@H]1O (stereo partly drawn) [Specimen No. 8, Sodium p-aminobenzoate-N--L-rhamnoside] | 7 | 150 | raising the level of intra-platelet cellular cyclic AMP | 12800 |  |  |  |  |  |  |  |  |  |  | suppressed the production of MDA |  | 
3 | O=C(O)c1ccc(NC2O[C@H](CO)[C@@H](O)[C@H](O)[C@@H]2O)cc1 (stereo partly drawn) [Specimen No. 4, Sodium p-aminobenzoate-N--D-mannoside] | 7 | 155 | raising the level of intra-platelet cellular cyclic AMP | > 10000 |  |  |  |  |  |  |  |  |  |  | suppressed the production of MDA |  | 
